pIC50: −log10 of the molar value. Oligonucleotides are written 5' to 3', each unit as a sugar letter and its base; * is a phosphorothioate linkage, no mark a phosphodiester; rarer units and linkages stand in square brackets, end groups in braces. Plain capitals give the bases only. e = 2'-O-(2-methoxyethyl) (MOE); k = constrained ethyl (cEt); [5mC] = 5-methylcytosine; d = 2'-deoxy (DNA)
Legend:
AR mRNA [1] = assay: Antisense inhibition of human AR in HuVEC cells, single concentration (electroporation, qRT-PCR RTS3559); format: cell-based
How it was run: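 AR mRNA levels were measured with human primer-probe set RTS3559 and adjusted for total RNA (RIBOGREEN). Cells were HuVEC, with each antisense oligonucleotide delivered by electroporation at one concentration.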

AR mRNA [2] = assay: Dose-dependent antisense inhibition of human AR in HuVEC cells (electroporation, qRT-PCR RTS3559, IC50); format: cell-based; details: HuVEC
How it was run: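 HuVEC cells dosed with antisense oligonucleotides by electroporation and treated approximately 16 hours. AR mRNA quantified by real-time qPCR with primer probe set RTS3559 and normalised to total RNA by RIBOGREEN; IC50 from dose-response.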

[3] = 500 nM ASO, electroporation, ~24 h, Table 1
[4] = Table 31, electroporation, approximately 16 hours
[5] = Table 29, electroporation, approximately 16 hours
[6] = Table 32, electroporation, approximately 16 hours
[7] = Table 21, 500 nM oligonucleotide, electroporation, approximately 24 hours, relative to untreated control
[8] = Table 33, electroporation, approximately 16 hours
[9] = Table 35, electroporation, approximately 16 hours
[10] = Table 34, electroporation, approximately 16 hours
[11] = Table 30, electroporation, approximately 16 hours

“549358 (kA*kT*kG*dG*dT*dG*d[5mC]*dT*dG*dG*d[5mC]*d[5mC]*dT*k[5mC]*kG*k[5mC]; antisense) [compound 549358]” was tested, and the “% inhibition” value (AR mRNA [1]; [3]) was 91%, the “percent inhibition of AR” value (AR mRNA [2]; 55.6 nM, ~16 h, Table 3) was 29% and the “percent inhibition of AR” value (AR mRNA [2]; 166.7 nM, ~16 h, Table 3) was 63%. The “percent inhibition of AR” value (AR mRNA [2]; 500.0 nM, ~16 h, Table 3) was 85%, the “percent inhibition of AR” value (AR mRNA [2]; 1500.0 nM, ~16 h, Table 3) was 95% and the pIC50 (AR mRNA [2]; ~16 h, Table 3) was 6.85.

In the case of “583693 (antisense k[5mC]*kT*kG*dT*dG*dA*dT*dG*dA*dT*dG*d[5mC]*dG*kG*kT*kA) [compound 583693]”, the “% inhibition” value (AR mRNA [1]; 500 nM ASO, ~24 h, Table 18) was 36%, the “percent inhibition of AR, 46.9 nM” value (AR mRNA [2]; [4]) was 12% and the “percent inhibition of AR, 187.5 nM” value (AR mRNA [2]; [4]) was 39%. The “percent inhibition of AR, 750.0 nM” value (AR mRNA [2]; [4]) was 64%, the “percent inhibition of AR, 3000.0 nM” value (AR mRNA [2]; [4]) was 80% and the pIC50 (AR mRNA [2]; [4]) was 6.42.

For “569222 (antisense eT*eT*kG*kA*kT*dT*dT*dA*dA*dT*dG*dG*dT*kT*kG*k[5mC]) [compound 569222]”, the “% inhibition” value (AR mRNA [1]; 250 nM ASO, ~24 h, Table 7) was 74%, the “percent inhibition of AR” value (AR mRNA [2]; 31.25 nM, ~16 h, Table 8) was 36% and the “percent inhibition of AR” value (AR mRNA [2]; 62.5 nM, ~16 h, Table 8) was 48%. The “percent inhibition of AR” value (AR mRNA [2]; 125.0 nM, ~16 h, Table 8) was 67%, the “percent inhibition of AR” value (AR mRNA [2]; 500.0 nM, ~16 h, Table 8) was 91% and the “percent inhibition of AR” value (AR mRNA [2]; 1000.0 nM, ~16 h, Table 8) was 98%. It also gave a pIC50 (AR mRNA [2]; ~16 h, Table 8) of 7.22.

In the case of “583613 (antisense kG*k[5mC]*kA*dA*dT*dG*dT*dG*d[5mC]*dA*dG*d[5mC]*dT*kA*kG*k[5mC]) [compound 583613]”, the “% inhibition” value (AR mRNA [1]; 500 nM ASO, ~24 h, Table 17) was 51%, the “percent inhibition of AR, 46.9 nM” value (AR mRNA [2]; [5]) was 24% and the “percent inhibition of AR, 187.5 nM” value (AR mRNA [2]; [5]) was 60%. The “percent inhibition of AR, 750.0 nM” value (AR mRNA [2]; [5]) was 70%, the “percent inhibition of AR, 3000.0 nM” value (AR mRNA [2]; [5]) was 75% and the pIC50 (AR mRNA [2]; [5]) was 6.72.

For “583609 (antisense k[5mC]*kA*kG*d[5mC]*dT*dA*dG*d[5mC]*dT*d[5mC]*dG*d[5mC]*d[5mC]*k[5mC]*kG*k[5mC]) [compound 583609]”, the “% inhibition” value (AR mRNA [1]; 500 nM ASO, ~24 h, Table 17) was 51%, the “percent inhibition of AR, 46.9 nM” value (AR mRNA [2]; [5]) was 16% and the “percent inhibition of AR, 187.5 nM” value (AR mRNA [2]; [5]) was 48%. For the same substance, the “percent inhibition of AR, 750.0 nM” value (AR mRNA [2]; [5]) was 63%, the “percent inhibition of AR, 3000.0 nM” value (AR mRNA [2]; [5]) was 73% and the pIC50 (AR mRNA [2]; [5]) was 6.44.

In the case of “583865 (kT*kT*k[5mC]*dA*dG*dT*dG*d[5mC]*dT*d[5mC]*dT*dT*dG*k[5mC]*k[5mC]*kT; antisense) [compound 583865]”, the “% inhibition” value (AR mRNA [1]; Table 20, 500 nM oligonucleotide, electroporation, approximately 24 hours, relative to untreated control) was 45%, the “percent inhibition of AR, 46.9 nM” value (AR mRNA [2]; [6]) was 33% and the “percent inhibition of AR, 187.5 nM” value (AR mRNA [2]; [6]) was 42%. For the same substance, the “percent inhibition of AR, 750.0 nM” value (AR mRNA [2]; [6]) was 68%, the “percent inhibition of AR, 3000.0 nM” value (AR mRNA [2]; [6]) was 85% and the pIC50 (AR mRNA [2]; [6]) was 6.72.

In the case of “549383 (k[5mC]*k[5mC]*kA*dA*dA*d[5mC]*dG*d[5mC]*dA*dT*dG*dT*d[5mC]*k[5mC]*k[5mC]*k[5mC]; antisense) [compound 549383]”, the “% inhibition” value (AR mRNA [1]; [3]) was 88%, the “percent inhibition of AR” value (AR mRNA [2]; 55.6 nM, ~16 h, Table 3) was 10% and the “percent inhibition of AR” value (AR mRNA [2]; 166.7 nM, ~16 h, Table 3) was 34%. The “percent inhibition of AR” value (AR mRNA [2]; 500.0 nM, ~16 h, Table 3) was 75%, the “percent inhibition of AR” value (AR mRNA [2]; 1500.0 nM, ~16 h, Table 3) was 88% and the pIC50 (AR mRNA [2]; ~16 h, Table 3) was 6.57.

For “583747 (antisense kG*k[5mC]*kT*dG*d[5mC]*dG*d[5mC]*dT*d[5mC]*dG*d[5mC]*dG*dG*k[5mC]*k[5mC]*kT) [compound 583747]”, the “% inhibition” value (AR mRNA [1]; 500 nM ASO, ~24 h, Table 18) was 35%, the “percent inhibition of AR, 46.9 nM” value (AR mRNA [2]; [4]) was 13% and the “percent inhibition of AR, 187.5 nM” value (AR mRNA [2]; [4]) was 38%. For the same substance, the “percent inhibition of AR, 750.0 nM” value (AR mRNA [2]; [4]) was 50%, the “percent inhibition of AR, 3000.0 nM” value (AR mRNA [2]; [4]) was 69% and the pIC50 (AR mRNA [2]; [4]) was 6.19.

In the case of “560133 (antisense kA*kT*kG*dG*dT*dT*dG*dA*dT*dT*dT*dA*kA*kT*kG*eG) [compound 560133]”, the “% inhibition” value (AR mRNA [1]; 1,000 nM ASO, ~24 h, Table 13) was 53%, the “percent inhibition of AR” value (AR mRNA [2]; 31.25 nM, ~16 h, Table 14) was 17% and the “percent inhibition of AR” value (AR mRNA [2]; 62.5 nM, ~16 h, Table 14) was 15%. The “percent inhibition of AR” value (AR mRNA [2]; 125.0 nM, ~16 h, Table 14) was 24%, the “percent inhibition of AR” value (AR mRNA [2]; 500.0 nM, ~16 h, Table 14) was 58% and the “percent inhibition of AR” value (AR mRNA [2]; 1000.0 nM, ~16 h, Table 14) was 79%. For the same substance, the pIC50 (AR mRNA [2]; ~16 h, Table 14) was 6.47.

For “583920 (kT*kA*kG*dT*dA*dG*dT*d[5mC]*dG*d[5mC]*dG*dA*d[5mC]*kT*k[5mC]*kT; antisense) [compound 583920]”, the “% inhibition” value (AR mRNA [1]; [7]) was 42%, the “percent inhibition of AR, 46.9 nM” value (AR mRNA [2]; [8]) was 11% and the “percent inhibition of AR, 187.5 nM” value (AR mRNA [2]; [8]) was 16%. For the same substance, the “percent inhibition of AR, 750.0 nM” value (AR mRNA [2]; [8]) was 50%, the “percent inhibition of AR, 3000.0 nM” value (AR mRNA [2]; [8]) was 72% and the pIC50 (AR mRNA [2]; [8]) was 6.12.

With “584138 (k[5mC]*kG*k[5mC]*dG*d[5mC]*dA*dG*dG*dT*dA*dG*dG*dA*kG*k[5mC]*k[5mC]; antisense) [compound 584138]” the “% inhibition” value (AR mRNA [1]; Table 23, 500 nM oligonucleotide, electroporation, approximately 24 hours, relative to untreated control) was 35%, the “percent inhibition of AR, 46.9 nM” value (AR mRNA [2]; [9]) was 2% and the “percent inhibition of AR, 187.5 nM” value (AR mRNA [2]; [9]) was 40%. For the same substance, the “percent inhibition of AR, 750.0 nM” value (AR mRNA [2]; [9]) was 62%, the “percent inhibition of AR, 3000.0 nM” value (AR mRNA [2]; [9]) was 89% and the pIC50 (AR mRNA [2]; [9]) was 6.43.

“583917 (kT*k[5mC]*kG*d[5mC]*dG*dA*d[5mC]*dT*d[5mC]*dT*dG*dG*dT*kA*k[5mC]*kG; antisense) [compound 583917]” was tested, and the “% inhibition” value (AR mRNA [1]; [7]) was 37%, the “percent inhibition of AR, 46.9 nM” value (AR mRNA [2]; [10]) was 6% and the “percent inhibition of AR, 187.5 nM” value (AR mRNA [2]; [10]) was 30%. For the same substance, the “percent inhibition of AR, 750.0 nM” value (AR mRNA [2]; [10]) was 50%, the “percent inhibition of AR, 3000.0 nM” value (AR mRNA [2]; [10]) was 70% and the pIC50 (AR mRNA [2]; [10]) was 6.19.

“583712 (antisense k[5mC]*k[5mC]*kT*dT*dG*dA*dG*d[5mC]*dT*dT*dG*dG*d[5mC]*kT*kG*kA) [compound 583712]” was tested, and the “% inhibition” value (AR mRNA [1]; 500 nM ASO, ~24 h, Table 18) was 37%, the “percent inhibition of AR, 46.9 nM” value (AR mRNA [2]; [11]) was 15% and the “percent inhibition of AR, 187.5 nM” value (AR mRNA [2]; [11]) was 47%. For the same substance, the “percent inhibition of AR, 750.0 nM” value (AR mRNA [2]; [11]) was 72%, the “percent inhibition of AR, 3000.0 nM” value (AR mRNA [2]; [11]) was 78% and the pIC50 (AR mRNA [2]; [11]) was 6.54.

For “583795 (antisense kT*kG*k[5mC]*dT*dG*dT*dT*dG*d[5mC]*dT*dG*dA*dA*kG*kG*kA) [compound 583795]”, the “% inhibition” value (AR mRNA [1]; Table 19, 500 nM oligonucleotide, electroporation, approximately 24 hours, relative to untreated control) was 63%, the “percent inhibition of AR, 46.9 nM” value (AR mRNA [2]; [4]) was 37% and the “percent inhibition of AR, 187.5 nM” value (AR mRNA [2]; [4]) was 61%. For the same substance, the “percent inhibition of AR, 750.0 nM” value (AR mRNA [2]; [4]) was 83%, the “percent inhibition of AR, 3000.0 nM” value (AR mRNA [2]; [4]) was 90% and the pIC50 (AR mRNA [2]; [4]) was 7.05.

For “584167 (kG*kA*kG*dT*dG*dT*dT*dA*dA*dT*dG*dA*dA*kG*kA*k[5mC]; antisense) [compound 584167]”, the “% inhibition” value (AR mRNA [1]; Table 24, 1,000 nM oligonucleotide, electroporation, approximately 24 hours, relative to untreated control) was 78%, the “percent inhibition of AR, 46.9 nM” value (AR mRNA [2]; [9]) was 13% and the “percent inhibition of AR, 187.5 nM” value (AR mRNA [2]; [9]) was 45%. The “percent inhibition of AR, 750.0 nM” value (AR mRNA [2]; [9]) was 76%, the “percent inhibition of AR, 3000.0 nM” value (AR mRNA [2]; [9]) was 93% and the pIC50 (AR mRNA [2]; [9]) was 6.68.

— patent USRE48461E1, “Modulation of androgen receptor expression” (Ionis Pharmaceuticals, Inc., priority 2012, dated 2021)
